By EC50 is commonly meant the concentration at which the effect is half-maximal. As usually defined, the IC50 is the concentration that inhibits the measured activity by half. A lower IC50 goes with inhibition by little substance.

Assay [1] addresses T1, human GHS receptor (Homo sapiens, UniProt Q92847). The assay is described as follows: Ghrelin IP1 agonist assay (IP1 HTRF). The assay is classed as cell-based. The arrangement: expressed in transfected cells; host or cells: HEK293s. Particulars: for Emax: 2 h, agonist effect as % maximal effect of GHRP-6 (5 μM), read-out: h IP1 ag %; for EC50: HEK293s cells stably expressing human GHS receptor, 2 hours at 37° C., read-out: h IP1 ag EC50. How it is done:
In HEK293s cells stably expressing human GHS receptor (In-house), agonist activity was assessed by measuring intracellular myo-Inositol 1 phosphate (IP1) using the IP1 HTRF assay kit (Cisbio International).
Cells were harvested using accutase (Sigma), spun down at 1000 rpm for 5 minutes and resuspended in stimulation buffer (as above) containing 0.02% fatty acid free BSA at a density of 1.43E6cells/ml.
Agonist effect of the compound was expressed as % maximal effect of GHRP-6 (5 μM: Bachem). Sigmoidal curves were fitted by Origin 7.5 Client and EC50 values determined.
Background: In TR-FRET formats the signal depends on donor and acceptor labels being close together.

Assay [2] has as its target T1, human GHS receptor. The assay can be described thus: h bind IC50 (binding assay, Table 1). Conditions: human receptor; Table 1.

T1 sequence (Q92847 whole entry): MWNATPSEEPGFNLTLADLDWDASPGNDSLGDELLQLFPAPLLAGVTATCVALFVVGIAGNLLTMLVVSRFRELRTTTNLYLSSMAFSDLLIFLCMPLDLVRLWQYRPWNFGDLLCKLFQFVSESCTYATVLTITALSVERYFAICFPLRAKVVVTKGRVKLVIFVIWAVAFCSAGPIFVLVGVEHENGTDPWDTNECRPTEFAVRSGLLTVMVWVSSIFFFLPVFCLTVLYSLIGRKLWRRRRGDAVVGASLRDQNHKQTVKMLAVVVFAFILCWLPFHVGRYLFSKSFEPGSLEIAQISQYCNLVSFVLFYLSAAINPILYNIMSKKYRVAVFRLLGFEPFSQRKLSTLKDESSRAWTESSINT

As to `CS(=O)(=O)c1ccc2nc(NC(=O)NC(=O)c3cc(S(N)(=O)=O)ccc3Cl)sc2c1` [Example 138, 2-Chloro-N-[(6-methylsulfonylbenzothiazol-2-yl)carbamoyl]-5-sulfamoyl-benzamide], at human GHS receptor [1], the Emax stood at 0% and the EC50 was at least 25000 nM. This molecule also returned a 50% inhibitory concentration (IC50) at human GHS receptor [2] of 448 nM.
The like results for `CS(=O)(=O)c1ccc2nc(NC(=O)NC(=O)c3cc(-c4cncs4)ccc3Cl)sc2c1` [Example 68, 2-chloro-N-(6-(methylsulfonyl)benzothiazol-2-ylcarbamoyl)-5-(thiazol-5-yl)benzamide] were, in that order, 0%, above 25000 nM and 44.1 nM.
On to `O=C(NC(=O)c1cc(-n2cccc2)ccc1Cl)Nc1nc2ccc(S(=O)(=O)CCCNCC3CC3)cc2s1` [Example 72, 2-Chloro-N-[[6-[3-(cyclopropylmethylamino)propylsulfonyl]benzothiazol-2-yl]carbamoyl]-5-pyrrol-1-yl-benzamide], for which, on human GHS receptor [1], the Emax came out at 6.6% and the EC50 stood at 6070 nM. On human GHS receptor [2], this molecule showed an IC50 of 0.3 nM.
For the molecule `COc1cc(Cl)c(C(=O)NC(=O)Nc2nc3ccc(S(=O)(=O)C4CCN(C)CC4)cc3s2)cc1-n1nccc1C` [Example 265, 2-chloro-4-methoxy-5-(5-methyl-1H-pyrazol-1-yl)-N-(6-(1-methylpiperidin-4-ylsulfonyl)benzo [d]thiazol-2-ylcarbamoyl) benzamide], on human GHS receptor [1], the Emax came out at 0%. On human GHS receptor [2], this molecule gave an IC50 of 29.6 nM.
As to `CC(C)N1CCCC(S(=O)(=O)c2ccc3nc(NC(=O)NC(=O)c4ccccc4Cl)sc3c2)C1` (stereo not drawn) [Example 140, 2-Chloro-N-[[6-[(1-propan-2-yl-3-piperidyl)sulfonyl]benzothiazol-2-yl]carbamoyl]benzamide], at human GHS receptor [1], the Emax was 42.5% and the EC50 worked out at 62 nM. On human GHS receptor [2], this molecule showed an IC50 of 289 nM.
For `CCN1CCN(CCCS(=O)(=O)c2ccc3nc(NC(=O)NC(=O)c4ccccc4Cl)sc3c2)CC1` [Example 197, 2-Chloro-N-[[6-[3-(4-ethylpiperazin-1-yl)propylsulfonyl]benzothiazol-2-yl]carbamoyl]benzamide], at human GHS receptor [1], the Emax is 55.8% and the EC50 amounted to 2.02 nM. The molecule further gave an IC50 on human GHS receptor [2] of 0.4 nM.
For the molecule `CC(C)(C)OC(=O)N1CCC(Oc2ccc(Cl)c(C(=O)NC(=O)Nc3nc4ccc(S(C)(=O)=O)cc4s3)c2)C1` (stereo not drawn) [Example 248, tert-butyl 3-(4-chloro-3-(6-(methylsulfonyl)benzo[d]thiazol-2-ylcarbamoyl-carbamoyl)phenoxy) pyrrolidine-1-carboxylate], at human GHS receptor [1], the Emax is 3.07% and the EC50 stood at 347 nM. The molecule also showed an IC50 at human GHS receptor [2] of 59 nM.
The matching figures for `COCCNC1CC(S(=O)(=O)c2ccc3nc(NC(=O)NC(=O)c4ccccc4Cl)sc3c2)C1` (stereo not drawn) [Example 222, 2-Chloro-N-[[6-[3-(2-methoxyethylamino)cyclobutyl]sulfonylbenzothiazol-2-yl]carbamoyl]benzamide]: 58.2%, 43 nM and 18.6 nM.
The like results for `CCOc1ccc(Cl)c(C(=O)NC(=O)Nc2nc3ccc(S(=O)(=O)CCCN4CCN(C)CC4)cc3s2)c1` [Example 93, 2-Chloro-5-ethoxy-N-(6-(3-(4-methylpiperazin-1-yl)propylsulfonyl)benzothiazol-2-ylcarbamoyl)benzamide] were, in that order, 3.9%, 30.1 nM and 1.7 nM.
In the case of `O=C(NC(=O)c1ccccc1Cl)Nc1nc2ccc(S(=O)(=O)Cc3ncc[nH]3)cc2s1` [Example 189, 2-Chloro-N-[[6-(1H-imidazol-2-ylmethylsulfonyl)benzothiazol-2-yl]carbamoyl]benzamide], at human GHS receptor [1], the Emax turned out to be 20.4% and the EC50 was 280 nM. For the same molecule, the IC50 at human GHS receptor [2] came to 274 nM.
`CC(=O)N1CCN(CCCS(=O)(=O)c2ccc3nc(NC(=O)NC(=O)c4ccccc4Cl)sc3c2)CC1` [Example 198, N-[[6-[3-(4-Acetylpiperazin-1-yl)propylsulfonyl]benzothiazol-2-yl]carbamoyl]-2-chloro-benzamide]: on human GHS receptor [1], the Emax is 32.1% and the EC50 amounted to 11 nM. On human GHS receptor [2], this molecule gave an IC50 of 10.8 nM.
Regarding `CC(C)NCCS(=O)(=O)c1ccc2nc(NC(=O)NC(=O)c3cc(-n4cccc4)ccc3Br)sc2c1` [Example 83, 2-Bromo-N-(6-(2-(isopropylamino)ethylsulfonyl)benzothiazol-2-ylcarbamoyl)-5-(1H-pyrrol-1-yl)benzamide], at human GHS receptor [1], the Emax was determined as 0% and the EC50 was at least 25000 nM. Also, the IC50 on human GHS receptor [2] stood at 1.3 nM.
As for `CCN(CC)CCCS(=O)(=O)c1ccc2nc(NC(=O)NC(=O)c3cc(-n4cccn4)ccc3Cl)sc2c1` [Example 98, 2-Chloro-N-(6-(3-(diethylamino)propylsulfonyl)benzothiazol-2-ylcarbamoyl)-5-(1H-pyrazol-1-yl)benzamide], on human GHS receptor [1], the Emax stood at 9.19% and the EC50 is 1.5 nM. This molecule came in with an IC50 at human GHS receptor [2] of 8.7 nM.
Turning to `CS(=O)(=O)c1ccc2nc(NC(=O)NC(=O)c3cc(Br)ccc3Cl)sc2c1` [Example 161, 5-Bromo-2-chloro-N-[(6-methylsulfonylbenzothiazol-2-yl)carbamoyl]benzamide], on human GHS receptor [1], the Emax turned out to be 56% and the concentration for a half-maximal effect (EC50) came to 6.18 nM. Also, at human GHS receptor [2], the IC50 was 105 nM.
In the case of `CCN1CCN(CCS(=O)(=O)c2ccc3nc(NC(=O)NC(=O)c4ccccc4Cl)sc3c2)CC1` [Example 29, 2-Chloro-N-[[6-[2-(4-ethylpiperazin-1-yl)ethylsulfonyl]benzothiazol-2-yl]carbamoyl]benzamide], the 50% inhibitory concentration (IC50) on human GHS receptor [2] is 60.9 nM.
On human GHS receptor [2], `O=C(NC(=O)c1cc(-n2cccc2)ccc1Cl)Nc1nc2ccc(S(=O)(=O)CCCN3CCC3)cc2s1` [Example 74, N-[[6-[3-(Azetidin-1-yl)propylsulfonyl]benzothiazol-2-yl]carbamoyl]-2-chloro-5-pyrrol-1-yl-benzamide] came in with an IC50 of 1 nM.
The same measure, in the same setting: to `CC1CN(CCS(=O)(=O)c2ccc3nc(NC(=O)NC(=O)c4ccccc4Cl)sc3c2)CC(C)O1` (stereo not drawn) [Example 19, 2-Chloro-N-[[6-[2-(2,6-dimethylmorpholin-4-yl)ethylsulfonyl]benzothiazol-2-yl]carbamoyl]benzamide] belongs 1050 nM; to `CC(C)NCCCS(=O)(=O)c1ccc2nc(NC(=O)NC(=O)c3cc(-n4cccc4)ccc3Cl)sc2c1` [Example 75, 2-Chloro-N-[[6-[3-(propan-2-ylamino)propylsulfonyl]benzothiazol-2-yl]carbamoyl]-5-pyrrol-1-yl-benzamide], 7.4 nM; to `CC(C)Oc1cc(Cl)c(C(=O)NC(=O)Nc2nc3ccc(S(=O)(=O)C4CCN(C)CC4)cc3s2)cc1-n1cccn1` [Example 267, 2-chloro-4-isopropoxy-N-(6-(1-methylpiperidin-4-ylsulfonyl)benzo [d]thiazol-2-ylcarbamoyl) 5-(1H-pyrazol-1-yl)benzamide], 1.5 nM.
Same read-out and setting: to `CC(C)N1CC(S(=O)(=O)c2ccc3nc(NC(=O)NC(=O)c4ccccc4Cl)sc3c2)C1` [Example 186, 2-Chloro-N-[[6-(1-propan-2-ylazetidin-3-yl)sulfonylbenzothiazol-2-yl]carbamoyl]benzamide] belongs 34.1 nM; to `O=C(NC(=O)c1ccccc1Cl)Nc1nc2ccc(S(=O)(=O)CCN3CCC(O)C3)cc2s1` (stereo not drawn) [Example 5, 2-Chloro-N-[[6-[2-(3-hydroxypyrrolidin-1-yl)ethylsulfonyl]benzothiazol-2-yl]carbamoyl]benzamide], 403 nM.

The values above are taken from patent US20120115845A1, “THERAPEUTIC AGENTS” (priority 2007, published 2012).
